According to PMC9496553, “The Dual-Targeted Peptide Conjugated Probe for Depicting Residual Nasopharyngeal Carcinoma and Guiding Surgery” (Biosensors, 2022):
No end group written: not given here.

Assays:
Assay type in all cases: in vivo, BALB/c nude mice
5-8F tumours [1] = test: Minimal size of detectable subcutaneous tumours by fluorescence imaging; details: 12 μM, n = 8
Procedure: (§1) Animal experiments were performed in accordance with the approval of Animal Welfare and Ethics Committee of Jinan University (approval number: IACUC-20211210-03). Four-week-old BALB/c nude mice were purchased from the Beijing Vital River Laboratory Animal Technology Co., Ltd. (Beijing, China). Subcutaneous tumour models received a subcutaneous injection of 5-8F (5.0 × 10^6 in 200 μL PBS) in the lower right flank. Experiments were started 10–14 days after tumour implantation, when the tumour diameter was 6–8 mm. Tumour volumes were measured using a Vernier calliper and calculated using the formula for a hemiellipsoid (volume = 0.5236 × length × width^2), as this form best approximated the tumour shape. For orthotopic tumour models, mice were anaesthetised using isoflurane with a precision vaporiser at 1% and injected with 25 μL of 1.1 × 10^5 5-8F-fLuc cells into the nasopharynx using a 28-gauge needle, as previously reported. […]
(§2) To identify the minimal size of detectable tumours, subcutaneous tumours of different sizes (1–7 mm; n = 8) were injected with 12 μM FY-35, and imaged at 24 h post-injection to measure MFI in the tumour region. […] Serial sections were cut at a thickness of 10 μm for fluorescence imaging using an inverted microscope (Leica, Wetzlar, Germany), and 4 μm for haematoxylin–eosin (H&E) staining.

5-8F tumours [2] = test: Biodistribution and tumour selectivity by whole-body fluorescence imaging, subcutaneous tumour model; details: for maximum TBR (tumour-to-background ratio): i.v. 12 μM, tumour region vs ipsilateral auricle
Procedure: Animal experiments were performed in accordance with the approval of Animal Welfare and Ethics Committee of Jinan University (approval number: IACUC-20211210-03). Four-week-old BALB/c nude mice were purchased from the Beijing Vital River Laboratory Animal Technology Co., Ltd. (Beijing, China). Subcutaneous tumour models received a subcutaneous injection of 5-8F (5.0 × 10^6 in 200 μL PBS) in the lower right flank. Experiments were started 10–14 days after tumour implantation, when the tumour diameter was 6–8 mm. Tumour volumes were measured using a Vernier calliper and calculated using the formula for a hemiellipsoid (volume = 0.5236 × length × width^2), as this form best approximated the tumour shape. For orthotopic tumour models, mice were anaesthetised using isoflurane with a precision vaporiser at 1% and injected with 25 μL of 1.1 × 10^5 5-8F-fLuc cells into the nasopharynx using a 28-gauge needle, as previously reported. Mice were fed a specific pathogen-free unit, and animal surgery was performed in a sterile hood. Orthotopic tumours were visualised and tracked by bioluminescence imaging (BLI) using an IVIS® Spectrum In Vivo Imaging System (PerkinElmer, Waltham, MA, USA). Specifically, mice received an intraperitoneal injection of 3 mg/mL luciferin bioluminescent substrate (Perkin Elmer, Waltham, MA, USA) 4 min before imaging.
Mice with subcutaneous 5-8F tumours were randomly divided into three groups (n = 3 per group). The three groups received intravenous (i.v.) injection with 12 μM FY-35 (dual-target dye), 12 μM FL-35 (single-target dye), and equimolar quantities of free dye, respectively. Fluorescence images were acquired pre-, 2 h, 6 h, 10 h, and 24 h post-injection. The mice in each group were euthanised. The heart, lung, liver, pancreas, spleen, kidney, intestine, and tumour tissues were collected for ex vivo imaging. The MFI was analysed to determine organ biodistribution and tumour selectivity in the three groups. The TBR was calculated by drawing regions of interest within the tumour region and ipsilateral auricle of each mouse.

[3] = tested on: 5-8F-fLuc orthotopic tumours; test: Fluorescence imaging of orthotopic nasopharyngeal tumours; details: orthotopic model, n = 5, i.v. 12 μM, imaged up to 48 h post-injection
Procedure: as §1, §2

| Substance | tumour volume at which the MFI increased remarkably (5-8F tumours [1]; 24 h post-injection) [mm^3] | minimum size of detectable tumours (5-8F tumours [1]; imaged 24 h post-injection, subcutaneous tumours 1–7 mm) [mm] | contrast improved compared to single-targeted tracer (IR800-FL-35) (5-8F tumours [2]; at 24 h post-injection) [fold] | maximum TBR (tumour-to-background ratio) (5-8F tumours [2]; subcutaneous 5-8F tumours) | maximum TBR, fold higher than that of IR800-FL-35 (5-8F tumours [2]; subcutaneous 5-8F tumours) [fold] | retention of optical contrast in the tumour region [3] [h] |
| --- | --- | --- | --- | --- | --- | --- |
| IR800-FY-35: bispecific peptide FY-35 labelled with IRDye 800CW (FAEKFKEAVKDYFAKFWDGSGLTVSPWYLTVSPWY; also: IRDye 800CW label, site not given here) | 32 | 3.9 | 2.3 | 13.83 | 2.3 | 48 |
| IR800-FL-35: single-targeted peptide FL-35 labelled with IRDye 800CW (FAEKFKEAVKDYFAKFWDGSGSYTYSTPVWVPLWL; also: IRDye 800CW label, site not given here) | – | – | – | 5.99 | – | – |
